Results on four molecules are retold here after patent US20260174778A1, “SULFONAMIDE COMPOUND, AND PREPARATION METHOD THEREFOR AND USE THEREOF” (SHANGHAI HENLIUS BIOTECH, INC., priority 2023, published 2026).

pKi: −log10 of the molar value. Like-named read-outs stand apart in the source and are kept apart here.

Data set [1] has as its target T1, KAT7 (Homo sapiens, UniProt O95251).
T1 construct: purchased ACTIVE MOTIF 31889
The experiment in a line: Inhibition of human KAT enzymes, radioisotope method: KAT7. In kind it is biochemical. To be noted: for pKi: KAT7 (full-length), radioisotope method; for KAT7/ KAT6A / KAT7/ KAT6B: selectivity, ratio of Ki. The text has this:
(§1) Test Example 2: Selective Inhibitory Effects of Test Compounds on Human KAT6 Enzymes (Radioisotope Method)
(§2) • 1. KAT6A (ACTIVE MOTIF, Cat. No. 81223) • 2. KAT5 (BPS, Cat. No. 79422) • 3. KAT7 (ACTIVE MOTIF, Cat. No. 31889) • 4. KAT6B (ACTIVE MOTIF, Cat. No. 81224) • 5. Acetyl coenzyme A, [Acetyl-^3H, 250 μCi (9.25 MBq](PEIRKIN4 ELMER, Cat. No. NET290250UC) • 6. Acetyl coenzyme A (CAYMVAN, Cat. No. 16160) • 7. 384-well Flashplate (Perkin Elmer, Cat. No. SMP410A001PK) • 8. Garcinol (MCE, Cat. No. HY-107569) • 9. Automatic microplate pipetting system (Precision, PRC384U, BioTek) • 10. Ultrasonic nanoliter liquid handling system (Echo 650 Liquid Handler, Echo 650, Labcyte) • 11. Centrifuge (Avanti J-15R, Beckman Coulter) • 12. Liquid scintillation counter (Microplate Counter, Microbeta2, Perkin Elmer)
(§3) • 1. For KAT6A and KAT7, a 1× assay buffer was prepared as follows: 10 mM Tris-HCl pH 8.0, 0.01% Tween-20, and 1 mM DTT; for KAT6B and KAT5, a 1× assay buffer was prepared as follows: 50 mM Tris-HCl pH 8.0, 0.05% Tween-20, and 1 mM DTT. • 2. Compound preparation: For KAT6A, KAT6B, and KAT7, the final concentration of the compounds started at 1 μM, followed by a 5-fold serial dilution across a total of 7 concentration gradients; for KAT5, the final concentration of the compounds started at 10 μM, followed by a 5-fold serial dilution across a total of 7 concentration gradients. • 3. Substrate reaction solution preparation: The mixed substrates of H4 peptide and [3H]acetyl coenzyme A at final concentrations were prepared using the respective 1× assay buffers, as shown in Table 4.
(§4) • 1. The enzyme solution was transferred to 384-well reaction plates at 10 μL/well. For each negative control well, 10 μL of the 1× assay buffer was transferred. The plates were then centrifuged at 1000 RPM for 1 min and incubated at room temperature for 15 min. • 2. The substrate reaction solution was added at 10 μL/well, and the plates were centrifuged at 1000 RPM for 1 min to start the reaction. • 3. The samples for KAT6A, KAT6B, KAT7, KAT8, and KAT5 were then incubated at room temperature for 60 min, 120 min, 45 min, 60 min, and 120 min, respectively. • 4. Stop solution preparation: A stop solution was prepared by diluting 50 µM cold Ac-CoA in 1× buffer. • 5. The stop solution was added at 10 μL/well, and the plates were centrifuged at […] for 1 min to stop the reaction. • 6. The mixtures in the reaction plates were transferred at 25 μL/well to new plates (Streptavidin FlashPlate HTS PLUS, High Capacity, 384-well). • 7. The plates were incubated at room temperature for at least 60 min and then • 8. read using MicroBeta2.
(§5) Raw data were obtained in EXCEL, and the inhibition rates were calculated:
(§6) [formula] [formula] • Max signal: reaction signal from enzyme and substrate; • Sample signal: signal from sample; • Min signal: signal from substrate only (negative control).
(§7) The inhibition rate data were imported into XLFit Excel, and IC50 values were obtained using formula (2):
(§8) [formula] [formula] • Top: value of the top plateau of the fitted regression curve; • Bottom: value of the bottom plateau of the fitted regression curve; • HillSlope: slope of the fitted regression curve.
(§9) The IC50 value was substituted into formula (3) to obtain the enzymatic activity inhibition constant Ki:
(§10) [formula] • [S]: substrate concentration; Km: Michaelis constant.

The target of data set [2] is T2, KAT6B (Homo sapiens, UniProt Q8WYB5).
T2 construct: purchased ACTIVE MOTIF 81224
T2 sequence (Q8WYB5 whole entry): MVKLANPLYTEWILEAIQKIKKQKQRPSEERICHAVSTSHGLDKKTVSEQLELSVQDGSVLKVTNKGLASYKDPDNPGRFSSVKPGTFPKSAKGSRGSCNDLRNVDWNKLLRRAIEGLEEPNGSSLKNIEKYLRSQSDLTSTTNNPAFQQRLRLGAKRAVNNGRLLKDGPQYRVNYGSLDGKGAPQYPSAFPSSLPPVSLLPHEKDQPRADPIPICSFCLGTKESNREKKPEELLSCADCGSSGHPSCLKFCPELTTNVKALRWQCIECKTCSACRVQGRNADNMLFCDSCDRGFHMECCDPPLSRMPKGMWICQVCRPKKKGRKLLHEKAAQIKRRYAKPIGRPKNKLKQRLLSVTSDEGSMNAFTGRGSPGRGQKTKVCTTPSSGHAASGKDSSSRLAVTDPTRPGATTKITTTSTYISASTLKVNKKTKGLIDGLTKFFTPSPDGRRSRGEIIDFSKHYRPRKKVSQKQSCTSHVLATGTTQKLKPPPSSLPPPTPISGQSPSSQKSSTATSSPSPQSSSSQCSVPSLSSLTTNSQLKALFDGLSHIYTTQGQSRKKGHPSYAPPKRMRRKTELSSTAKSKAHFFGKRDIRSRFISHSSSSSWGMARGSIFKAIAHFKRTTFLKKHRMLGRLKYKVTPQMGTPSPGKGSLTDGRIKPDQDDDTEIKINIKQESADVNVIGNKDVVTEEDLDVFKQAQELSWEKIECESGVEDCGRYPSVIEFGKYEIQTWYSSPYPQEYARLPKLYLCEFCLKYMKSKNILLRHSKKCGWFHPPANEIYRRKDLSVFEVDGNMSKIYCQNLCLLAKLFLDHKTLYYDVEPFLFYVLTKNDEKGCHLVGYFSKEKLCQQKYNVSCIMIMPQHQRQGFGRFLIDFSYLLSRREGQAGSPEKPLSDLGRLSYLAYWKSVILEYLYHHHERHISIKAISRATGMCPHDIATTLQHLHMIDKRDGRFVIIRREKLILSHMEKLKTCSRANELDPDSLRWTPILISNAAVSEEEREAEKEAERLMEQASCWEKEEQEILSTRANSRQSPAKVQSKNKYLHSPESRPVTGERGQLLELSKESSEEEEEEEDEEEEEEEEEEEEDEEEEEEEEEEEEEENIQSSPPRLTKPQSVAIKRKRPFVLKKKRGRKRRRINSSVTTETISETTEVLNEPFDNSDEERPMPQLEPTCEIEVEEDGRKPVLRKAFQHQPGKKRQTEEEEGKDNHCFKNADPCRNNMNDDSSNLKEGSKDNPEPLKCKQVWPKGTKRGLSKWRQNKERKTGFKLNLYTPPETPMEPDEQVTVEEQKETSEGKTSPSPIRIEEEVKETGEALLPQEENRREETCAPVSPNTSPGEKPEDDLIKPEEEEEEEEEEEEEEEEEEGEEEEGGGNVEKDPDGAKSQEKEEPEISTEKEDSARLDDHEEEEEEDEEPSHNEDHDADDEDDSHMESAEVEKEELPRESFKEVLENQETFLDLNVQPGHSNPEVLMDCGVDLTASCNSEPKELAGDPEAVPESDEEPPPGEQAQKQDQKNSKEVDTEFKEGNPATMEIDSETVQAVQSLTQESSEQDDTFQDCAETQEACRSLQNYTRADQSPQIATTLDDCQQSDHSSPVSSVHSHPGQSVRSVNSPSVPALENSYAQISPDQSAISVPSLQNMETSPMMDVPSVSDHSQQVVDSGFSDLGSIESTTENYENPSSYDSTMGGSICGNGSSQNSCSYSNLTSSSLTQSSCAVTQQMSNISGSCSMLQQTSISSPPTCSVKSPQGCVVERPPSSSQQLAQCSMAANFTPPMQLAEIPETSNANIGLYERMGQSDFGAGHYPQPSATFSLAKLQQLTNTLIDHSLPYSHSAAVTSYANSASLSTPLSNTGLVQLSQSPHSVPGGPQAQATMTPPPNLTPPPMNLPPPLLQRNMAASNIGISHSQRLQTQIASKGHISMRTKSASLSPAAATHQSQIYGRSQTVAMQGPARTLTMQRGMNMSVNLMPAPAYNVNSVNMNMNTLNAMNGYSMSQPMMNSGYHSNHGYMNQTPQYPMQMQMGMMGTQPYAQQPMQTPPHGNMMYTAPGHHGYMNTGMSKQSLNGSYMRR
Description: Inhibition of human KAT enzymes, radioisotope method: KAT6B. In kind it is biochemical. As to conditions: KAT6B (718-1008).
Description: as §1, §2, §3, §4, §5, §6, §7, §8, §9, §10

In data set [3] the target is T3, KAT6A (Homo sapiens, UniProt Q92794).
T3 construct: purchased ACTIVE MOTIF 81223
Description: Inhibition of human KAT enzymes, radioisotope method: KAT6A. The format is biochemical. To be noted: KAT6A (488-778).
Description: as §1, §2, §3, §4, §5, §6, §7, §8, §9, §10

The target of data set [4] is T4, KAT5 (Homo sapiens, UniProt Q92993).
T4 construct: purchased BPS 79422
T4 sequence (Q92993 whole entry): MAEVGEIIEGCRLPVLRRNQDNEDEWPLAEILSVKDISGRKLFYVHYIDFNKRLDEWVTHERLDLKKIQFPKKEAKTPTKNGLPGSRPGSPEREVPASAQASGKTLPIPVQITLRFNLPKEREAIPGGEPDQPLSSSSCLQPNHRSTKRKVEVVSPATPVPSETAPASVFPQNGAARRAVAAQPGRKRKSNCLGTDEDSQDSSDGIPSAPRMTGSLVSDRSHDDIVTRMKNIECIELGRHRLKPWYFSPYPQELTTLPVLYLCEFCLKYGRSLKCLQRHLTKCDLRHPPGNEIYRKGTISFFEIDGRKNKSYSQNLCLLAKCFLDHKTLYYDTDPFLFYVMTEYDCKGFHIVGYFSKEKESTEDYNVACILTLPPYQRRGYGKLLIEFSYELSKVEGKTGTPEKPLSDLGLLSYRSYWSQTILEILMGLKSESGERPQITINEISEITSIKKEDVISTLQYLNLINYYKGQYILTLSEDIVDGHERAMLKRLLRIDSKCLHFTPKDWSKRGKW
The experiment in a line: Inhibition of human KAT enzymes, radioisotope method: KAT5. To be noted: for pKi: KAT5 (full-length), radioisotope method; for KAT5/ KAT6A / KAT5/ KAT6B: selectivity, ratio of Ki. The format is biochemical.
Description: as §1, §2, §3, §4, §5, §6, §7, §8, §9, §10

Data set [5] is described as follows: Pharmacokinetics in SD (Sprague Dawley) rats. In kind it is in vivo. To be noted: rat, plasma, female SD rats; for clearance: read-out: CL (clearance rate); for half-life: read-out: T1/2 (half-life) (converted); for Vd: read-out: Vdss (apparent volume of distribution); for bioavailability: read-out: F (bioavailability). As for the experimental part: Test Example 3: Determination of Pharmacokinetic Data of Compounds in SD (Sprague Dawley) Rats
The pharmacokinetic characteristics of some of the compounds of the present disclosure were evaluated by a pharmacokinetic experiment in SD rats.
Female SD rats aged 6-8 weeks from Shanghai Jihui Laboratory Animal Care Co., Ltd. were selected. The test animals were fasted overnight before administration, and feeding was resumed 4 h after administration. The compounds were dissolved in 5% DMSO+5% Tween 80+90% normal saline. For a single intravenous administration, the administration dose was 1 mg/kg, and the administration volume was 2 mL/kg. For a single intragastric administration, the administration dose was 2 mg/kg, and the administration volume was 10 mL/kg. Blood was collected at 0.083 h (for intravenous administration only), 0.25 h, 0.5 h, 1 h, 2 h, 4 h, 8 h, and 24 h after administration. At each indicated time point, about 150 μL of blood sample was collected from each rat via the vein and placed into an EDTA-K2 tube. Each sample was centrifuged (2000 g, 4° C., 5 min) within 15 min after sample collection to obtain plasma, which was then stored at −70° C. until analysis. The concentration of the corresponding test compound in the SD rat plasma was determined using UPLC-MS/MS.

What is called pKi is the negative decadic logarithm of the Ki, by convention in mol/L. The low end stands for a high Ki, the high end for a low Ki. In general, AUC(0-inf) refers to the area under the concentration-time curve extrapolated to infinity. One may read the clearance as the rate of elimination divided by the concentration.

T1 sequence (O95251 whole entry): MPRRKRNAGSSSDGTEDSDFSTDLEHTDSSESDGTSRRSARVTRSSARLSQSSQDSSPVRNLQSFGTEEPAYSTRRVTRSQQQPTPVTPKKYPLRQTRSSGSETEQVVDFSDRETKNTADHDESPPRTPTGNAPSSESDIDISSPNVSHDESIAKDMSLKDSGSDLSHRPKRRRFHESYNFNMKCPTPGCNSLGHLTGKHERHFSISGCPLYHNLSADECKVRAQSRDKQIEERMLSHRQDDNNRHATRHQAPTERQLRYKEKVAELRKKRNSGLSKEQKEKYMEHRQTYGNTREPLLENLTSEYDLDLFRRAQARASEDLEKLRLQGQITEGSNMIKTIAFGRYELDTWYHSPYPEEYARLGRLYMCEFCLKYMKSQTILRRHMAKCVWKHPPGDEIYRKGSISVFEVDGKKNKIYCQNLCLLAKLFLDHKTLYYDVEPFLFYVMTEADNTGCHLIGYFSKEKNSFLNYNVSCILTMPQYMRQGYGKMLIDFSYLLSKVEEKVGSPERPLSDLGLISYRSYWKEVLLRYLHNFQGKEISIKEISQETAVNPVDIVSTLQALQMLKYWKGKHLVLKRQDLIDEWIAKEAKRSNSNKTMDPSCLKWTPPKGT

Regarding `COc1ccc2c(c1S(=O)(=O)Nc1noc3cc(Cn4cccn4)c(F)c(OC)c13)OCCN2C` [Compound 109, N-(6-((1H-Pyrazol-1-yl)methyl)-5-fluoro-4-methoxybenzo[d]isoxazol-3-yl)-7-methoxy-4-methyl-3,4-dihydro-2H-benzo[b][1,4]oxazine-8-sulfonamide], in data set [1], the pKi was 7.26, the “KAT7/ KAT6A” value stood at 116 and the “KAT7/ KAT6B” value worked out at 61. Moreover, the pKi in data set [2] was 9.05. Moreover, the pKi in data set [3] was 9.33. In data set [4], the pKi is 6.54, the “KAT5/ KAT6A” value was 609 and the “KAT5/ KAT6B” value is 318. In addition, in data set [5] (iv, i.v. 1 mg/kg), the AUC(0-inf) stood at 90700 ng·h/mL, the clearance worked out at 0.185 mL/min/kg, the half-life was 8.57 h and the Vd amounted to 0.119 L/kg. Moreover, in data set [5] (po, p.o. 2 mg/kg), the AUC(0-inf) stood at 187000 ng·h/mL, the bioavailability came to 96% and the half-life is 9.73 h.
On to `COc1ccc2c(c1S(=O)(=O)Nc1noc3cc(Cn4cccn4)c(F)c(OC)c13)OCCCO2` [Compound 114, N-(6-((1H-Pyrazol-1-yl)methyl)-5-fluoro-4-methoxybenzo[d]isoxazol-3-yl)-7-methoxy-3,4-dihydro-2H-benzo[b][1,4]dioxepine-6-sulfonamide], for which, in data set [1], the pKi is 6.76, the “KAT7/ KAT6A” value worked out at 458 and the “KAT7/ KAT6B” value came to 70. Also, in data set [2], the pKi was 8.60. Besides, the pKi in data set [3] was 9.42. Moreover, in data set [4], the pKi is 5.73, the “KAT5/ KAT6A” value is on record as 4880 and the “KAT5/ KAT6B” value came out at 745. For the same molecule, in data set [5] (iv, i.v. 1 mg/kg), the AUC(0-inf) was 39200 ng·h/mL, the clearance stood at 0.462 mL/min/kg, the half-life is 17.2 h and the Vd was found to be 0.608 L/kg. In data set [5] (po, p.o. 2 mg/kg), the total exposure AUC(0-inf) was 97900 ng·h/mL, the bioavailability amounted to 144% and the half-life is 13 h.
Regarding `COc1ccc2c(c1S(=O)(=O)Nc1noc3cc(Cn4cccn4)c(F)c(OC)c13)OCCCN2C` [Compound 115, N-(6-((1H-Pyrazol-1-yl)methyl)-5-fluoro-4-methoxybenzo[d]isoxazol-3-yl)-8-methoxy-5-methyl-2,3,4,5-tetrahydrobenzo[b][1,4]oxazepine-9-sulfonamide], in data set [1], the pKi is 6.31, the “KAT7/ KAT6A” value came to 782 and the “KAT7/ KAT6B” value was 76. Also, in data set [2], the pKi is 8.19. For the same molecule, in data set [3], the pKi was 9.20. In data set [4], the pKi is 5.30, the “KAT5/ KAT6A” value came out at 7998 and the “KAT5/ KAT6B” value stood at 778. Further, in data set [5] (iv, i.v. 1 mg/kg), the total exposure AUC(0-inf) is 47500 ng·h/mL, the clearance worked out at 0.363 mL/min/kg, the half-life was 14.3 h and the Vd amounted to 0.408 L/kg. In data set [5] (po, p.o. 2 mg/kg), the total exposure AUC(0-inf) was found to be 109000 ng·h/mL, the bioavailability is 105% and the half-life is 15.9 h.
`COc1ccccc1S(=O)(=O)Nc1noc2cc(Cn3cccn3)cc(OC)c12` [PF-8144, reference compound]: in data set [1], the negative logarithm of the Ki (pKi) is 7.07, the “KAT7/ KAT6A” value turned out to be 148 and the “KAT7/ KAT6B” value is recorded as 17. In data set [2], this molecule had a pKi of 8.29. The same molecule gave a pKi in data set [3] of 9.24. In addition, in data set [4], the pKi was 6.17, the “KAT5/ KAT6A” value was found to be 1159 and the “KAT5/ KAT6B” value is given as 130. In data set [5] (iv, i.v. 1 mg/kg), the AUC(0-inf) amounted to 28300 ng·h/mL, the clearance stood at 0.597 mL/min/kg, the half-life was 3.16 h and the Vd was found to be 0.143 L/kg. Besides, in data set [5] (po, p.o. 2 mg/kg), the AUC(0-inf) is 55500 ng·h/mL, the bioavailability was found to be 98% and the half-life was 3.79 h.
